Measured values taken from paper PMC5963640 (Journal of Ocular Pharmacology and Therapeutics, 2018).
Like-named read-outs stand apart in the source and are kept apart here.

Tests used:
[1] = target: T1, protein kinase C-theta (PKC-theta) (Homo sapiens, UniProt Q04759); experiment: Kinase-Glo luminescent protein kinase assay, PKC-theta; format: biochemical; settings: average of ≥3 replicate experiments; read-out: PKCT Ki
T1 construct: purchased Invitrogen/Life Technologies

[2] = target: T2, myotonic dystrophy kinase-related CDC42-binding kinase alpha (MRCKA) (Homo sapiens, UniProt Q5VT25); experiment: Kinase-Glo luminescent protein kinase assay, MRCKA; format: biochemical; settings: average of ≥3 replicate experiments
T2 construct: purchased Upstate
T2 sequence (Q5VT25 whole entry): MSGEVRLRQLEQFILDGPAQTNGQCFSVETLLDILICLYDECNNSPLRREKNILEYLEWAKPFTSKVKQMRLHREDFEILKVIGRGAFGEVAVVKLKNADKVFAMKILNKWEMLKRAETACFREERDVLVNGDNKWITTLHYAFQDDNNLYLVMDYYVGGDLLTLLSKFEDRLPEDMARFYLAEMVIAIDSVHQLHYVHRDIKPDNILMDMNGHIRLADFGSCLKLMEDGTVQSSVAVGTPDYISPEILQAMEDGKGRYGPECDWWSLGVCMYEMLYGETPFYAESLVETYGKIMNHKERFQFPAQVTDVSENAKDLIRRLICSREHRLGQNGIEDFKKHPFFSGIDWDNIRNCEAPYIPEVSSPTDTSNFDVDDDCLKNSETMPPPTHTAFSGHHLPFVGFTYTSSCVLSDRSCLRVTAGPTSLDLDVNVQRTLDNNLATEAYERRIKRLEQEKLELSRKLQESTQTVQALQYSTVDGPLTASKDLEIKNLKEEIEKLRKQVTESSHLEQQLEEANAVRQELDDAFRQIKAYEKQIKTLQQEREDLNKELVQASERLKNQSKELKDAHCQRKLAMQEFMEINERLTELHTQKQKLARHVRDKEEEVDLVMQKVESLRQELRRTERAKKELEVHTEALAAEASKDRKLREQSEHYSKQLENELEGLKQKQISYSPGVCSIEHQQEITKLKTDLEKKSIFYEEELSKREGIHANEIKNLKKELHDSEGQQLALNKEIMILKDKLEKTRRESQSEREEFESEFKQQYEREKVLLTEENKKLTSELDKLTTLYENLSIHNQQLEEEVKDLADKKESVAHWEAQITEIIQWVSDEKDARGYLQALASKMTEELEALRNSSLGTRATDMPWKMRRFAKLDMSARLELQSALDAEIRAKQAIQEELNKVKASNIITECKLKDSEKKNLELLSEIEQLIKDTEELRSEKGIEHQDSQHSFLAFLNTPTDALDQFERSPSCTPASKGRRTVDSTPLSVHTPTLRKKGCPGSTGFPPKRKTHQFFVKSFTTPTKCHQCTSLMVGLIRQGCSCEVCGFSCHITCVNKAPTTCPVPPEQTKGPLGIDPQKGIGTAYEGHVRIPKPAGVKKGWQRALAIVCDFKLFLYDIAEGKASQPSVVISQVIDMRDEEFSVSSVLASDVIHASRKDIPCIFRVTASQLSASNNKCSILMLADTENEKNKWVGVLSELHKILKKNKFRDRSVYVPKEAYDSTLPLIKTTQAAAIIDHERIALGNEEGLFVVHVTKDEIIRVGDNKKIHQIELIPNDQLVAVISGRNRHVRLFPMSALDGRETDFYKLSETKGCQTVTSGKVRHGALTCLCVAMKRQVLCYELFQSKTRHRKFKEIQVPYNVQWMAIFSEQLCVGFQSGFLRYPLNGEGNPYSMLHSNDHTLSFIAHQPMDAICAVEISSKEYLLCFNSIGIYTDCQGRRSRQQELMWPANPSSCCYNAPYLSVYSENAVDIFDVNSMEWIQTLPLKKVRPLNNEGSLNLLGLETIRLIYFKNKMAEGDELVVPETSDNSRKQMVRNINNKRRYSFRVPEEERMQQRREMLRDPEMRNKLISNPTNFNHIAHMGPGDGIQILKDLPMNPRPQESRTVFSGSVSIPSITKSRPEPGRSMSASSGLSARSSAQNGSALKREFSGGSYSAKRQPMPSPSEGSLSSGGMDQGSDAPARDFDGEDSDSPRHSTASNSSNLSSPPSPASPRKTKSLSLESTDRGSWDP

[3] = target: T3, calcium/calmodulin-dependent protein kinase II Alpha (CAMK2A) (Homo sapiens, UniProt Q9UQM7); experiment: Kinase-Glo luminescent protein kinase assay, CAMK2A; format: biochemical; settings: average of ≥3 replicate experiments; read-out: CAM2A Ki
T3 construct: purchased Invitrogen/Life Technologies
T3 sequence (Q9UQM7 whole entry): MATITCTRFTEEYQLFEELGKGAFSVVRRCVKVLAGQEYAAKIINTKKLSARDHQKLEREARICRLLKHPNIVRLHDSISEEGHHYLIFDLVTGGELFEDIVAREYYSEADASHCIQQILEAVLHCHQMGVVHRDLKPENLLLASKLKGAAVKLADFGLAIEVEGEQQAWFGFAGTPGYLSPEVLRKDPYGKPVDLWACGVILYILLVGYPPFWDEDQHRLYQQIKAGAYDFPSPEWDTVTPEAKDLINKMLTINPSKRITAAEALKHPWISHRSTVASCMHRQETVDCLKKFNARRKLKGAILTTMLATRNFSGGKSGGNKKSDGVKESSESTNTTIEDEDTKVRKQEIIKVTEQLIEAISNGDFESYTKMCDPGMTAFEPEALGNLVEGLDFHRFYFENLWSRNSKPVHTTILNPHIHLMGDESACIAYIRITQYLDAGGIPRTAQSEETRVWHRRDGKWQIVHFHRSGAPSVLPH

[4] = tested on: primary porcine TM (PTM) cells; experiment: Disruption of actin stress fibers, high-content screening; format: cell-based; settings: for IC50: Sus scrofa, 6 h incubation, read-out: PTM IC50 (disruption of actin stress fibers)
[5] = tested on: transformed human TM (HTM) cells (TM-1); experiment: Disruption of focal adhesions, high-content screening; format: cell-based; settings: 6 h incubation, read-out: HTM IC50 (disruption of focal adhesions)
[6] = Absorption and distribution of radioactivity after single topical ocular dose; format: in vivo, Dutch Belted rabbits; settings: for AUClast / Cmax / T1/2,e / Tmax: 14C-netarsudil 0.02% single topical ocular dose
Method: A single topical ocular dose of 0.02% ^14C-netarsudil mesylate (35 μL drop) was administered to both eyes of 3 male Dutch Belted rabbits in each of 7 groups. At 0.25, 0.5, 1, 4, 8, 24, and 48 h postdose, the following samples were harvested from each group: whole blood, derived plasma, AH, vitreous humor, cornea, conjunctiva, lens, iris/ciliary body, retina-choroid-plexus, liver, and kidneys. All samples were assayed for total radioactivity. A study of the same design was conducted for AR-12286, using a single topical ocular dose of 0.5% ^3H-AR-12286 (35 μL drop).

[7] = tested on: normotensive Dutch Belted rabbits; experiment: Ocular hypotensive activity (IOP) in rabbits
[8] = tested on: normotensive Formosan Rock monkeys; experiment: Ocular hypotensive activity (IOP) in monkeys; settings: 0.5%, Day 3
[9] = target: T4, ROCK1 (Homo sapiens, UniProt Q13464); experiment: Kinase-Glo luminescent protein kinase assay, ROCK1; format: biochemical; settings: ROCK1 and ROCK2
T4 construct: purchased Invitrogen/Life Technologies
T4 sequence (Q13464 whole entry): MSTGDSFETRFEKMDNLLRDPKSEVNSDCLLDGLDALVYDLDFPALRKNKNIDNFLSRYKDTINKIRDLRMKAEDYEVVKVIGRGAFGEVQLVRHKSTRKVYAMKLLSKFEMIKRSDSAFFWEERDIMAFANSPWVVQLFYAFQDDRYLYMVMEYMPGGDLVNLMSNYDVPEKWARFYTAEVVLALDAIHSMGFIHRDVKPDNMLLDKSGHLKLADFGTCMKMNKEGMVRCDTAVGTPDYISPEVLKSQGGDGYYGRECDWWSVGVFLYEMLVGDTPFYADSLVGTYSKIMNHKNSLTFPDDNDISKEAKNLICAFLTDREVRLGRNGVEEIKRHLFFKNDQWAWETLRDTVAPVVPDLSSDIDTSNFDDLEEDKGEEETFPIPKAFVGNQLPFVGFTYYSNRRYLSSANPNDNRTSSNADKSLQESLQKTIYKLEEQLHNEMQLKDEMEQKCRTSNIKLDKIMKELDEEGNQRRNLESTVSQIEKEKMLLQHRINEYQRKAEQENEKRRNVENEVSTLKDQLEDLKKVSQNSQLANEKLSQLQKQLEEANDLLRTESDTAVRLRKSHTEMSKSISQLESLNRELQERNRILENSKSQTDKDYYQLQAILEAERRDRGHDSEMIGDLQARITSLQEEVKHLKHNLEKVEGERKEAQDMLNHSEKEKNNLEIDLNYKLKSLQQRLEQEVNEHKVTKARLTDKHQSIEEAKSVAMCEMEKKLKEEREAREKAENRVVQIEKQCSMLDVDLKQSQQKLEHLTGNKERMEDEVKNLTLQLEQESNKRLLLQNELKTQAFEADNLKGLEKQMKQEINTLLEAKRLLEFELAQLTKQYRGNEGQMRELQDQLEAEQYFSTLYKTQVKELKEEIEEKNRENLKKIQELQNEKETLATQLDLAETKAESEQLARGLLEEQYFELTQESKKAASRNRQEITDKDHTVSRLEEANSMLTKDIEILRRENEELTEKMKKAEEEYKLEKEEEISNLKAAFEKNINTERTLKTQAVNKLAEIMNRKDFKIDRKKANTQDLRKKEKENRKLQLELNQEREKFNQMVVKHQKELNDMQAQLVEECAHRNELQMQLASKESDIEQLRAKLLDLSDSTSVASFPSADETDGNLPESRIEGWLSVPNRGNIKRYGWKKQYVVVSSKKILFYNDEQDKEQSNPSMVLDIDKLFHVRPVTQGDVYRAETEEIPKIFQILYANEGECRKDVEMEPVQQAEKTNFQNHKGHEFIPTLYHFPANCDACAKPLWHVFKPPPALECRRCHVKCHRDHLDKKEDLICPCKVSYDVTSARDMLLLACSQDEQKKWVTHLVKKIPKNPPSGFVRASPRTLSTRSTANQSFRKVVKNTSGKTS

[10] = target: norepinephrine transporter (NET) (Homo sapiens, UniProt P23975); experiment: NET inhibitory activity (data not shown)
norepinephrine transporter (NET), sequence (P23975 whole entry, species assumed, the tested form may be a part): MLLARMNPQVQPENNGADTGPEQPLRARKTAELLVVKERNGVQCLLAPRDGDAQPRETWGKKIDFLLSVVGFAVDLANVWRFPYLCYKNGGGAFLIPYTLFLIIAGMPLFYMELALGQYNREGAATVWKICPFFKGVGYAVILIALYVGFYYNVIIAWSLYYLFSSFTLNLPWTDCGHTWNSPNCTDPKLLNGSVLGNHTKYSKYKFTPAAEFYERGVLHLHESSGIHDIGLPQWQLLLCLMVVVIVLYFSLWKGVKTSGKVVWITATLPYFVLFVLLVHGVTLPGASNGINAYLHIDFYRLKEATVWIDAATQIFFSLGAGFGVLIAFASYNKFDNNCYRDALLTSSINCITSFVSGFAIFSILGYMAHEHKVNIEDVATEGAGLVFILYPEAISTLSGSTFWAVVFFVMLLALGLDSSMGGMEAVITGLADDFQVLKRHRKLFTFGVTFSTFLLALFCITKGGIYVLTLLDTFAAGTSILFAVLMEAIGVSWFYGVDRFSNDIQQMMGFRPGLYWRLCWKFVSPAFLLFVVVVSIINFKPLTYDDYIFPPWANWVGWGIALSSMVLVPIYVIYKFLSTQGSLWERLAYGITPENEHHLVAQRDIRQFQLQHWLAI

[11] = tested on: mouse eyes; settings: eyes perfused ∼1 h, cited from earlier work
[12] = tested on: human donor eyes; settings: perfused for 3 h; cited from earlier work
[13] = male, Dutch Belted, rabbit, in vivo, topical or ocular
[14] = Aqueous humor, L eye, radioactivity
[15] = Aqueous humor, R eye, radioactivity
[16] = Conjuctiva, L eye, radioactivity
[17] = Conjuctiva, R eye, radioactivity
[18] = Iris-ciliary body, L eye, radioactivity
[19] = Iris-ciliary body, R eye, radioactivity
[20] = Retina-choroid-plexus, L eye, radioactivity
[21] = Retina-choroid-plexus, R eye, radioactivity
[22] = Vitreous humor, L eye, radioactivity
[23] = Vitreous humor, R eye, radioactivity

T1 sequence (Q04759 whole entry): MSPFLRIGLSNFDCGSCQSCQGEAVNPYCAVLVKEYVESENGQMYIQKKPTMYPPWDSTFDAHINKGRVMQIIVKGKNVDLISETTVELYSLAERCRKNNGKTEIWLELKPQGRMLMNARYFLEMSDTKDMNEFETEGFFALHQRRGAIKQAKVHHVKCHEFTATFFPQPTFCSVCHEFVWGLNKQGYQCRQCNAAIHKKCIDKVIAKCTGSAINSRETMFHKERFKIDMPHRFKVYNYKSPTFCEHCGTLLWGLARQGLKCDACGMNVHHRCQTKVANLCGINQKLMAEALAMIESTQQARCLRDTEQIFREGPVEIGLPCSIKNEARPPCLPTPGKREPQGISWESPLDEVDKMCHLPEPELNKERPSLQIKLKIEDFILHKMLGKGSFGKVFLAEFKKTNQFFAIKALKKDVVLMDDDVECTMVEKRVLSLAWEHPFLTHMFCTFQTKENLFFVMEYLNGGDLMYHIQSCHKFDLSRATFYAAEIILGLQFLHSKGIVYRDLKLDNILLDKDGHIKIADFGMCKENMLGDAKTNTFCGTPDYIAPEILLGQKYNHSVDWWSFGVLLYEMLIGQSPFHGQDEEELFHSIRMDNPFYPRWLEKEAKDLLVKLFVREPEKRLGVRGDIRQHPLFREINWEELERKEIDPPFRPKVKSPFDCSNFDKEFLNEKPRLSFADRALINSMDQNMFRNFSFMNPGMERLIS

## CN(C)C(C(=O)Nc1ccc2c(=O)[nH]ccc2c1)c1ccsc1 (stereo not drawn) [AR-12286]
[1]
  Ki: 9.32 µM
[2]
  Ki: 0.028 µM
[3]
  Ki: 5.85 µM
[4]
  IC50: 0.924 µM
[5]
  IC50: 0.818 µM
[6]; [13]
  T1/2,e values: 9 to 41 h
  Tmax in AH: 0.25 to 0.5 h
  terminal elimination half-life (T1/2,e) in AH: 9 to 11 h
[7]; 0.5%, 8 h after dosing on Day 3
  IOP reduction: 2.9 ± 0.2 mmHg
[7]; Day 1
  time of peak IOP-lowering efficacy after dosing: 0.5 h
[8]; 4 h after dosing
  IOP reduction: 5.6 ± 0.3 mmHg
[8]; 24 h after dosing
  IOP reduction: 3.9 ± 0.3 mmHg

## O=S(=O)(c1cccc2cnccc12)N1CCCNCC1 [Fasudil, reference compound]
[4]
  IC50: 10.1 µM
[5]
  IC50: 3.94 µM

## NC[C@@H](C(=O)Nc1ccc2cnccc2c1)c1ccc(CO)cc1 [Netarsudil-M1]
[9]
  fold greater activity against Rho kinase than netarsudil: 5 fold
[1]
  Ki: 0.027 µM
[2]
  Ki: 0.007 µM
[3]
  Ki: 13.7 µM
[4]; PTM and HTM cell-based assays
  fold greater activity than netarsudil for disruption of actin stress fibers and focal adhesions: ~5 fold
[4]
  IC50: 0.022 µM
[5]
  IC50: 0.003 µM
[10]
  NET inhibitory activity: does not inhibit NET
[11]; C57 mice
  increase in outflow facility: 56%
[11]; CD1 mice
  increase in outflow facility: 91%
[12]
  increase in outflow facility relative to control eyes: 59.7%

## CC(N)[C@H]1CC[C@H](C(=O)Nc2ccncc2)CC1 (stereo partly drawn) [Y27632, reference compound]
[4]
  IC50: 9.97 µM
[5]
  IC50: 1.74 µM

## Cc1ccc(C(=O)OCc2ccc([C@@H]([14CH2]N)C(=O)Nc3ccc4cnccc4c3)cc2)c(C)c1 [^14C-Netarsudil]
[6]; [14]
  AUClast: 510 ng·eq·h/g
  Cmax: 16 ng·eq/g
  T1/2,e: 17 h
  Tmax: 8 h
[6]; [15]
  AUClast: 613 ng·eq·h/g
  Cmax: 23 ng·eq/g
  T1/2,e: 16 h
  Tmax: 8 h
[6]; Blood, radioactivity
  AUClast: 15 ng·eq·h/g
  Cmax: 1 ng·eq/g
  T1/2,e: 27 h
  Tmax: 0.25 h
[6]; [16]
  AUClast: 9,525 ng·eq·h/g
  Cmax: 2,442 ng·eq/g
  T1/2,e: 13 h
  Tmax: 0.25 h
[6]; [17]
  AUClast: 12,390 ng·eq·h/g
  Cmax: 3,292 ng·eq/g
  T1/2,e: 17 h
  Tmax: 0.25 h
[6]; Cornea, L eye, radioactivity
  AUClast: 63,387 ng·eq·h/g
  Cmax: 3,666 ng·eq/g
  T1/2,e: 14 h
  Tmax: 0.5 h
[6]; Cornea, R eye, radioactivity
  AUClast: 69,605 ng·eq·h/g
  Cmax: 3,972 ng·eq/g
  T1/2,e: 13 h
  Tmax: 0.25 h
[6]; [18]
  AUClast: 10,845 ng·eq·h/g
  Cmax: 955 ng·eq/g
  Tmax: 0.25 h
[6]; [19]
  AUClast: 11,555 ng·eq·h/g
  Cmax: 416 ng·eq/g
  T1/2,e: 112 h
  Tmax: 8 h
[6]; Kidney, radioactivity
  AUClast: 298 ng·eq·h/g
  Cmax: 19 ng·eq/g
  T1/2,e: 16 h
  Tmax: 1 h
[6]; Lens, L eye, radioactivity
  AUClast: 33 ng·eq·h/g
  Cmax: 2 ng·eq/g
  T1/2,e: 99 h
  Tmax: 0.25 h
[6]; Lens, R eye, radioactivity
  AUClast: 37 ng·eq·h/g
  Cmax: 2 ng·eq/g
  T1/2,e: 83 h
  Tmax: 0.25 h
[6]; Liver, radioactivity
  AUClast: 88 ng·eq·h/g
  Cmax: 6 ng·eq/g
  T1/2,e: 13 h
  Tmax: 1 h
[6]; Plasma, radioactivity
  AUClast: 24 ng·eq·h/g
  Cmax: 1 ng·eq/g
  T1/2,e: 16 h
  Tmax: 0.5 h
[6]; [20]
  AUClast: 1,390 ng·eq·h/g
  Cmax: 80 ng·eq/g
  T1/2,e: 204 h
  Tmax: 0.25 h
[6]; [21]
  AUClast: 1,298 ng·eq·h/g
  Cmax: 50 ng·eq/g
  T1/2,e: 68 h
  Tmax: 0.5 h
[6]; [22]
  AUClast: 51 ng·eq·h/g
  Cmax: 7 ng·eq/g
  T1/2,e: 12 h
  Tmax: 0.25 h
[6]; [23]
  AUClast: 51 ng·eq·h/g
  Cmax: 4 ng·eq/g
  T1/2,e: 15 h
  Tmax: 0.25 h
[6]; netarsudil 0.02% single topical ocular dose, radioactivity
  Tmax in AH: 8 h
